These results are taken from ChEMBL document CHEMBL4190187, “Discovery of pyrazolopyrimidine derivatives as novel inhibitors of ataxia telangiectasia and rad3 related protein (ATR)” (Bioorg Med Chem Lett, 2017).

Molecules are shown by their SMILES.

The target in assay [1] is Dual specificity protein kinase CLK3 (Homo sapiens) (UniProt P49761). Briefly: Inhibition of recombinant full-length human CLK3 at 1 uM using ERMRPRKRQGSVRRRV as substrate after 40 mins in presence of [gamma-33P]ATP by scintillation counting method.
The target in assay [2] is Dual specificity mitogen-activated protein kinase kinase 6 (Homo sapiens) (UniProt P52564). Briefly: Inhibition of recombinant human MKK6 (4 to end residues) at 1 uM using inactive SAPK2a as substrate after 40 mins in presence of [gamma-33P]ATP by scintillation counting method.
The target in assay [3] is Tyrosine-protein kinase Lyn (Homo sapiens) (UniProt P07948). Briefly: Inhibition of recombinant full-length human Lyn at 1 uM using poly(Glu,Tyr) 4:1 as substrate after 40 mins in presence of [gamma-33P]ATP by scintillation counting method.
For assay [4], the target named is Non-receptor tyrosine-protein kinase TYK2 (Homo sapiens) (UniProt P29597). Briefly: Inhibition of recombinant human TYK2 (875 to end residues) at 1 uM using GGMEDIYFEFMGGKKK as substrate after 40 mins in presence of [gamma-33P]ATP by scintillation counting method.
Non-receptor tyrosine-protein kinase TYK2 (Homo sapiens), sequence (P29597 whole entry): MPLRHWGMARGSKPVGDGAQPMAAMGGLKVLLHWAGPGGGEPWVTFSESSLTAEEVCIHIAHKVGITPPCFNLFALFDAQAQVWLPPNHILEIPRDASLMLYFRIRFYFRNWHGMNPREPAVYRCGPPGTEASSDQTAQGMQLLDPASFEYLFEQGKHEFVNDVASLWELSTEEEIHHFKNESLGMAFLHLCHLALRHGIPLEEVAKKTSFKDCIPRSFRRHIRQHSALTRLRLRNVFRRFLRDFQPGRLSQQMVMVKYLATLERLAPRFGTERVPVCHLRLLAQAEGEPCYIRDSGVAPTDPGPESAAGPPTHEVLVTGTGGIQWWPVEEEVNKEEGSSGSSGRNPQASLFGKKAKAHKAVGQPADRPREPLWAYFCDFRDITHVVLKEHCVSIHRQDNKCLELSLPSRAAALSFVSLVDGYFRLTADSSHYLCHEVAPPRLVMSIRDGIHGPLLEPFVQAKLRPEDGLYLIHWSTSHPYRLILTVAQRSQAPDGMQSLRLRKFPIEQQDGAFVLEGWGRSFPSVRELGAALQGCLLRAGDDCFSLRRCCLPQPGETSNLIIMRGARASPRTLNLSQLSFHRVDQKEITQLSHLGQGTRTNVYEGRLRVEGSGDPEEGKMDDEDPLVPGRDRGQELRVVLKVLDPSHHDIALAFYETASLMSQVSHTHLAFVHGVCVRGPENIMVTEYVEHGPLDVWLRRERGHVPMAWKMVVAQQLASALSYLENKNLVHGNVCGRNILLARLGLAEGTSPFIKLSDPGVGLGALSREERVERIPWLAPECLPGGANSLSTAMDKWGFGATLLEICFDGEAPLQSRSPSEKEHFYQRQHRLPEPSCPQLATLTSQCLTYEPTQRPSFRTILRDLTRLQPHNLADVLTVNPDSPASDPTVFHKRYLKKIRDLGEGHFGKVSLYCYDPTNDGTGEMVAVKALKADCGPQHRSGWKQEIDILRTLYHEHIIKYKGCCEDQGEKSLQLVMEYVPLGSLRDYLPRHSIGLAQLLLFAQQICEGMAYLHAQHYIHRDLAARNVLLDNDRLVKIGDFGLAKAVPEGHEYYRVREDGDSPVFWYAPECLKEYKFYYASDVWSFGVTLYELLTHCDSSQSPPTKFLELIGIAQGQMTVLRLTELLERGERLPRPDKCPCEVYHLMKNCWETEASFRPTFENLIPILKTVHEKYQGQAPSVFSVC
The target of assay [5] is 5'-AMP-activated protein kinase catalytic subunit alpha-2 (Homo sapiens) (UniProt P54646). Briefly: Inhibition of recombinant full-length human AMPKalpha2 at 1 uM using AMARAASAAALARRR as substrate after 40 mins in presence of [gamma-33P]ATP by scintillation counting method.
5'-AMP-activated protein kinase catalytic subunit alpha-2 (Homo sapiens), sequence (P54646 whole entry, looked up, the tested form may be a part): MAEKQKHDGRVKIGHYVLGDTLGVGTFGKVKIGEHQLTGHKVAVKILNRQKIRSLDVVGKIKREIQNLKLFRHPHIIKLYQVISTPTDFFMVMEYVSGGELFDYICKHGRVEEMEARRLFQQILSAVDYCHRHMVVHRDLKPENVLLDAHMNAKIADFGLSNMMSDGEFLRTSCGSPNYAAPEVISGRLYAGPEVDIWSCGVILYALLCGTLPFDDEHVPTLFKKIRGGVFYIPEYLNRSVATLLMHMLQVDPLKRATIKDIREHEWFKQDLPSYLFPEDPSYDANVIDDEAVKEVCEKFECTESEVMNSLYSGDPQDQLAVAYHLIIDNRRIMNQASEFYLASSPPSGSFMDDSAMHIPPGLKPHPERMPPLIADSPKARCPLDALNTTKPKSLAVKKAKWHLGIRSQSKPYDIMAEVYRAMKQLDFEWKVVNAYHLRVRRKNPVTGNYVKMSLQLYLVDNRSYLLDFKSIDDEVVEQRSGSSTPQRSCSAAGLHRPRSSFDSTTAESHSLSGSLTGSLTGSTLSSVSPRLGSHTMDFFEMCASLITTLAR
Assay [6] deals with Insulin receptor (Homo sapiens) (UniProt P06213). Briefly: Inhibition of recombinant human IR (1005 to 1310 residues) at 1 uM using KKSRGDYMTMQIG as substrate after 40 mins in presence of [gamma-33P]ATP by scintillation counting method.
Assay [7] addresses Mitogen-activated protein kinase kinase kinase kinase 4 (Homo sapiens) (UniProt O95819). Briefly: Inhibition of recombinant human MAP4K4 (1 to 328 residues) at 1 uM using RLGRDKYKTLRQIRQ as substrate after 40 mins in presence of [gamma-33P]ATP by scintillation counting method.
In assay [8] the target is FKBP12A/mTOR (Homo sapiens) (UniProt P62942+P42345). Briefly: Inhibition of recombinant full-length human mTOR/FKBP12 at 1 uM after 40 mins in presence of [gamma-33P]ATP by scintillation counting method. It is filed as protein-complex assay.
FKBP12A/mTOR (Homo sapiens), sequence (P62942 2-108 limits assumed, other chains not shown): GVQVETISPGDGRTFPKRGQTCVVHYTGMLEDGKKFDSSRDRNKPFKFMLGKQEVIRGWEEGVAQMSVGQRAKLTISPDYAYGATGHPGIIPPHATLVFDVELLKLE
Assay [9] has as its target Mitogen-activated protein kinase 9 (Homo sapiens) (UniProt P45984). Briefly: Inhibition of recombinant full-length human JNK2alpha2 at 1 uM using ATF2 as substrate after 40 mins in presence of [gamma-33P]ATP by scintillation counting method.
The target in assay [10] is PI3-kinase p110-delta/p85-alpha (Homo sapiens) (UniProt P27986+O00329). Kind of assay: Inhibition of recombinant full-length human p110d/p85a at 1 uM using phosphatidylinositol 4,5-bisphosphate as substrate after 40 mins in presence of [gamma-33P]ATP by scintillation counting method. The class given is protein-complex assay.
The target in assay [11] is Ephrin type-B receptor 4 (Homo sapiens) (UniProt P54760). Briefly: Inhibition of recombinant human EPHB4 (561 to end residues) at 1 uM using poly(Glu,Tyr) 4:1 as substrate after 40 mins in presence of [gamma-33P]ATP by scintillation counting method.
Assay [12] has as its target Phosphatidylinositol 3-kinase (Mus musculus) (UniProt P26450+P42337). Kind of assay: Inhibition of recombinant full-length mouse PI3K p110a/p85a at 1 uM using phosphatidylinositol 4,5-bisphosphate as substrate after 40 mins in presence of [gamma-33P]ATP by scintillation counting method. The class given is protein assay.
The target in assay [13] is Platelet-derived growth factor receptor alpha (Homo sapiens) (UniProt P16234). Kind of assay: Inhibition of recombinant human PDGFRalpha (550 to end residues) at 1 uM using poly(Glu,Tyr) 4:1 as substrate after 40 mins in presence of [gamma-33P]ATP by scintillation counting method.
Platelet-derived growth factor receptor alpha (Homo sapiens), sequence (P16234 whole entry, the tested form may be a part): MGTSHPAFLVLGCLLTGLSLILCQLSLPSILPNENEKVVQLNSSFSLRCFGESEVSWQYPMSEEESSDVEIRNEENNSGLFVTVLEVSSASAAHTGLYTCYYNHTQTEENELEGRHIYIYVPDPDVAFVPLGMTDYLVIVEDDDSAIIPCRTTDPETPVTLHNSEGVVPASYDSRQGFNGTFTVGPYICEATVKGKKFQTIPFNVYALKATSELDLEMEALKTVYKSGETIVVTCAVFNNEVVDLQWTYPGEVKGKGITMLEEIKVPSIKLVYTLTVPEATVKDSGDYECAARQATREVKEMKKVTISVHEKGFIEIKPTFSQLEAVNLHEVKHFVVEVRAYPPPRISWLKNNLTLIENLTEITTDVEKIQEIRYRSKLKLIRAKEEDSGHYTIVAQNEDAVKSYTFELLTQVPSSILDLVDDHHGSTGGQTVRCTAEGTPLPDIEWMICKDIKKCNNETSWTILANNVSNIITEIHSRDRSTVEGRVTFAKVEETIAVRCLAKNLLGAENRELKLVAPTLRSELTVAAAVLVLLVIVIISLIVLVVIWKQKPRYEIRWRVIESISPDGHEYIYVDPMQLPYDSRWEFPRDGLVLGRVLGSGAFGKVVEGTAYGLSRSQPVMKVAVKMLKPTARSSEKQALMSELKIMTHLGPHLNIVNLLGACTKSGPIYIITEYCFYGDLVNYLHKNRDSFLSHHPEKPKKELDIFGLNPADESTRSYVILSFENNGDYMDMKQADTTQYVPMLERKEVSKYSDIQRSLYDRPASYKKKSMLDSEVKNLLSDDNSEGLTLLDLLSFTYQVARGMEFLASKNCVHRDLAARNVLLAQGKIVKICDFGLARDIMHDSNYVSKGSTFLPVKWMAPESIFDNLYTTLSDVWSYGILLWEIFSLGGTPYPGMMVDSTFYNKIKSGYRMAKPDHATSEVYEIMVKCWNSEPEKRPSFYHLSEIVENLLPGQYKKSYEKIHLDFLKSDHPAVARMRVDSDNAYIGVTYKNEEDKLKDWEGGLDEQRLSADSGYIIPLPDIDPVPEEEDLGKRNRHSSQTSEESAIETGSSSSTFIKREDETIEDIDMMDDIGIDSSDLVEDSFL
Assay [14] addresses Bone morphogenetic protein receptor type-2 (Homo sapiens) (UniProt Q13873). Kind of assay: Inhibition of recombinant human BMPR2 (172 to 734 residues) at 1 uM using myelin basic protein as substrate after 120 mins in presence of [gamma-33P]ATP by scintillation counting method.
Assay [15] deals with Tyrosine-protein kinase JAK2 (Homo sapiens) (UniProt O60674). Briefly: Inhibition of recombinant human JAK2 (808 to end residues) at 1 uM using KTFCGTPEYLAPEVRREPRILSEEEQEMFRDFDYIADWC as substrate after 40 mins in presence of [gamma-33P]ATP by scintillation counting method.
For assay [16], the target named is Serine/threonine-protein kinase pim-3 (Homo sapiens) (UniProt Q86V86). Kind of assay: Inhibition of recombinant human PIM3 (2 to end residues) at 1 uM using RSRHSSYPAGT as substrate after 40 mins in presence of [gamma-33P]ATP by scintillation counting method.
Assay [17] has as its target Serine/threonine-protein kinase MRCK beta (Homo sapiens) (UniProt Q9Y5S2). Kind of assay: Inhibition of recombinant human MRCKbeta (1 to 473 residues) at 1 uM using KKRNRTLTV as substrate after 40 mins in presence of [gamma-33P]ATP by scintillation counting method.
In assay [18] the target is Tyrosine-protein kinase ABL2 (Homo sapiens) (UniProt P42684). Briefly: Inhibition of recombinant human ARG (38 to end residues) at 1 uM using EAIYAAPFAKKK as substrate after 40 mins in presence of [gamma-33P]ATP by scintillation counting method.
In assay [19] the target is Serine/threonine-protein kinase/endoribonuclease IRE1 (Homo sapiens) (UniProt O75460). Briefly: Inhibition of recombinant human IRE1 (465 to end residues) at 1 uM using myelin basic protein as substrate after 40 mins in presence of [gamma-33P]ATP by scintillation counting method.
Assay [20] deals with Serine/threonine-protein kinase SIK2 (Homo sapiens) (UniProt Q9H0K1). Briefly: Inhibition of recombinant human SIK2 (1 to 276 residues) at 1 uM using KKKVSRSGLYRSPSMPENLNRPR as substrate after 40 mins in presence of [gamma-33P]ATP by scintillation counting method.
The target in assay [21] is Serine/threonine-protein kinase N1 (Homo sapiens) (UniProt Q16512). Kind of assay: Inhibition of recombinant human PRK1 (498 to end residues) at 1 uM using KKLNRTLSFAEPG as substrate after 40 mins in presence of [gamma-33P]ATP by scintillation counting method.
The target in assay [22] is Protein kinase C theta type (Homo sapiens) (UniProt Q04759). Kind of assay: Inhibition of recombinant full-length human PKCtheta at 1 uM using histone H1 as substrate after 40 mins in presence of [gamma-33P]ATP by scintillation counting method.
Protein kinase C theta type (Homo sapiens), sequence (Q04759 whole entry, looked up, the tested form may be a part): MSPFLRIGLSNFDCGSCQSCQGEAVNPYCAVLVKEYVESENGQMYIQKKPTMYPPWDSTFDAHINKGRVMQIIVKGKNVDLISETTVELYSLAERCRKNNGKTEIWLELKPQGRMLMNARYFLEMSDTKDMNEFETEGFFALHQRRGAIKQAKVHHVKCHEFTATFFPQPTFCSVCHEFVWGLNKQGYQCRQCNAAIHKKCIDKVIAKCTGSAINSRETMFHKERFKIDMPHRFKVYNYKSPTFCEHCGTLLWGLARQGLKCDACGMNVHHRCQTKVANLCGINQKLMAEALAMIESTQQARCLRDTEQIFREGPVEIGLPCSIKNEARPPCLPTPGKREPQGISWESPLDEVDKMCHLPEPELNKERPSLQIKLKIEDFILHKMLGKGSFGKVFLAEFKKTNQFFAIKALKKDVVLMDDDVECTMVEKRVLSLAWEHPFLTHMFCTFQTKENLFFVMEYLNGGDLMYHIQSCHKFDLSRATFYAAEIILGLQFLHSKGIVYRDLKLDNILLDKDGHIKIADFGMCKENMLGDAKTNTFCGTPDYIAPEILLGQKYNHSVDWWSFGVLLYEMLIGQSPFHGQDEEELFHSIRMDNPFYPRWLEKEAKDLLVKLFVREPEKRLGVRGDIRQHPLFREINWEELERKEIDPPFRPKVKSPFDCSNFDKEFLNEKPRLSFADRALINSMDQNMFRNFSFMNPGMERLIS
Assay [23] concerns the target Tyrosine-protein kinase HCK (Homo sapiens) (UniProt P08631). Kind of assay: Inhibition of recombinant human activated Hck (230 to 497 residues) at 1 uM using GGMEDIYFEFMGGKKK as substrate after 40 mins in presence of [gamma-33P]ATP by scintillation counting method.

Mitogen-activated protein kinase kinase kinase kinase 4 (Homo sapiens), sequence (O95819 2-1239 limits assumed): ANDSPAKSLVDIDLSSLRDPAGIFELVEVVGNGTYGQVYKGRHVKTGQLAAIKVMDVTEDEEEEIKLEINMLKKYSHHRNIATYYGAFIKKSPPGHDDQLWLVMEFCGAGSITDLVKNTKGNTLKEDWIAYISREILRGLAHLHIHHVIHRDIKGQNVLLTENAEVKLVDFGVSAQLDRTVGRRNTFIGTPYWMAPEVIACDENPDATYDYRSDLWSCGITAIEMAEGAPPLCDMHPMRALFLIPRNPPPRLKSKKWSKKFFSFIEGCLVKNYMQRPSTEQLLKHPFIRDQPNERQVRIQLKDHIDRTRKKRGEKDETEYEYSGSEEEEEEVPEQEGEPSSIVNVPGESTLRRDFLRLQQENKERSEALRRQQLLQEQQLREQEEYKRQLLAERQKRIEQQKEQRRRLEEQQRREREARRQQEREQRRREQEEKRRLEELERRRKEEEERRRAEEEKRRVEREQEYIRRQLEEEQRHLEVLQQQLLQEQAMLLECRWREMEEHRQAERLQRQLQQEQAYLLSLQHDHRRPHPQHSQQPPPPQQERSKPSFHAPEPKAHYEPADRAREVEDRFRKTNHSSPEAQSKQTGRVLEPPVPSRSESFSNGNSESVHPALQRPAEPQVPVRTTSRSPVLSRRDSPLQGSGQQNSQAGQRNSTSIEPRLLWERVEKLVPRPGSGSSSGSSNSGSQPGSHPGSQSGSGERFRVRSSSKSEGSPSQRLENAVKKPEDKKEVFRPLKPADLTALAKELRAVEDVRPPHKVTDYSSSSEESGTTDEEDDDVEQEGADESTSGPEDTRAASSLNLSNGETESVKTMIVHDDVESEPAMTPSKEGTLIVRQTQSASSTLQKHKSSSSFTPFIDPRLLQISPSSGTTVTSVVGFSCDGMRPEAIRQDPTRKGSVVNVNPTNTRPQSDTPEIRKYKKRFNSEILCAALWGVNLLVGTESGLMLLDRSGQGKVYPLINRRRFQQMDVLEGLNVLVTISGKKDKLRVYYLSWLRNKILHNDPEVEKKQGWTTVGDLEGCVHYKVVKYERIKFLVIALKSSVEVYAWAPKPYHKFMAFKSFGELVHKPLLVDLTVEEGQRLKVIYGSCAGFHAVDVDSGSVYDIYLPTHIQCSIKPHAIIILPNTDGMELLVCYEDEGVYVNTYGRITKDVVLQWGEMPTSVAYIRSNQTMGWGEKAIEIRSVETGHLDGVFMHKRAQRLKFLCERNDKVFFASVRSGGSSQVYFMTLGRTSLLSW

What is called inhibition is the relative decrease from the control value, in per cent. Regarding `CS(=O)(=O)c1ccc(-n2nc(-c3cnc4[nH]ccc4c3)c3c(N)ncnc32)cc1`, the inhibition is -1% in assay [1]; 1% in assay [2]; 40% in [3]; 8% in assay [4]; -9% in assay [5]; -7% in assay [6]. For the same molecule, the inhibition is -8% in assay [7]; 78% in assay [8]; -6% in assay [9]; 42% in assay [10]; 27% in [11]; 10% in [12]. For the same molecule, the inhibition is -6% in [13]; 2% in assay [14]; 5% in assay [15]; -1% in assay [16]; -4% in assay [17]; 61% in assay [18]. In addition, the inhibition is 2% in assay [19]; 21% in [20]; -1% in assay [21]; 5% in assay [22]; 93% in assay [23].
